Assay results: ChEMBL document CHEMBL1141107, “A novel series of non-carboxylic acid, non-hydantoin inhibitors of aldose reductase with potent oral activity in diabetic rat models: 6-(5-chloro-3-methylbenzofuran-2-sulfonyl)-2H-pyridazin-3-one and congeners” (J Med Chem, 2005)

Assays:
[1] = biological target: Aldo-keto reductase family 1 member B1 (Homo sapiens, UniProt P15121); test: In vitro inhibitroy concentration against Aldose reductase incubated at 24 degree C for 15 minutes in pH 7.0
Rattus norvegicus [2] = test: Inhibition of sorbitol accumulation in diabetic rat by acute test dosed at 20 mg/kg; type: functional
Rattus norvegicus [3] = test: Inhibition of fructose accumulation in diabetic rat after oral gavage administration incubated at RT for 60 minutes in pH 4.5 by acute test dosed at 20 mg/kg; type: functional; details: 1 h
Rattus norvegicus [4] = test: Inhibition of sorbitol accumulation in diabetic rat by acute test dosed at 10 mg/kg; type: functional
Rattus norvegicus [5] = test: Inhibition of fructose accumulation in diabetic rat after oral gavage administration incubated at RT for 60 minutes in pH 4.5 by acute test dosed at 10 mg/kg; type: functional; details: 1 h
Rattus norvegicus [6] = species: Rattus norvegicus; test: Dose required for inhibition of sorbitol accumulation in diabetic rat by acute test; type: functional
Rattus norvegicus [7] = test: Dose required for fructose accumulation in diabetic rat after oral gavage administration incubated at RT for 60 minutes in pH 4.5 by acute test; type: functional
Rattus norvegicus [8] = test: Inhibition of sorbitol accumulation in diabetic rat by acute test dosed at 50 mg/kg; type: functional
Rattus norvegicus [9] = test: Inhibition of fructose accumulation in diabetic rat after oral gavage administration, pH 4.5 by chronic test dosed at 20 mg/kg; type: functional
Rattus norvegicus [10] = test: Inhibition of sorbitol accumulation in diabetic rat by chronic test dosed at 20 mg/kg; type: functional
Rattus norvegicus [11] = test: Inhibition of fructose accumulation in diabetic rat after oral gavage administration, pH 4.5 by chronic test dosed at 10 mg/kg; type: functional
Rattus norvegicus [12] = test: Inhibition of sorbitol accumulation in diabetic rat by chronic test dosed at 10 mg/kg; type: functional
Rattus norvegicus [13] = test: Inhibition of fructose accumulation in diabetic rat after oral gavage administration, pH 4.5 by chronic test; type: functional
Rattus norvegicus [14] = species: Rattus norvegicus; test: Inhibition of sorbitol accumulation in diabetic rat by chronic test; type: functional
Rattus norvegicus [15] = test: Inhibition of sorbitol accumulation in diabetic rat by acute test dosed at 5 mg/kg; type: functional
Rattus norvegicus [16] = test: Inhibition of sorbitol accumulation in diabetic rat by chronic test dosed at 5 mg/kg; type: functional
Rattus norvegicus [17] = test: Inhibition of sorbitol accumulation in diabetic rat by acute test dosed at 3 mg/kg; type: functional
Rattus norvegicus [18] = test: Inhibition of fructose accumulation in diabetic rat after oral gavage administration incubated at RT for 60 minutes in pH 4.5 by acute test dosed at 3 mg/kg; type: functional; details: 1 h

Structure (SMILES) | IC50 [1] [nM] | inhibition in vivo at 20 mg/kg (Rattus norvegicus [2]) [%] | inhibition in vivo at 20 mg/kg (Rattus norvegicus [3]) [%] | inhibition in vivo at 10 mg/kg (Rattus norvegicus [4]) [%] | inhibition in vivo at 10 mg/kg (Rattus norvegicus [5]) [%] | further results
O=S(=O)(Cc1cccc(F)c1F)c1ccc(O)nn1 | 257 | 82 | 51 |  |  | 
O=c1ccc(S(=O)(=O)c2ccc(Cl)cc2)n[nH]1 | 380 |  |  | 65 | 52 | 
O=S(=O)(c1ccc(O)nn1)c1ccc(Cl)cc1Cl |  |  |  |  |  | ED50 (Rattus norvegicus [6]): 0.8 mg/kg; ED50 (Rattus norvegicus [7]): 3 mg/kg
O=c1ccc(S(=O)(=O)c2cc3cc(Cl)ccc3o2)n[nH]1 |  |  |  |  | 39 | 
O=c1ccc(S(=O)(=O)c2oc3ccc(Cl)cc3c2-c2ccccc2)n[nH]1 | 34 | 27 | 20 |  |  | 
O=S(=O)(Cc1ccccc1C(F)(F)F)c1ccc(O)nn1 | 500 |  |  |  |  | 
COc1ccc2oc(S(=O)(=O)c3ccc(=O)[nH]n3)cc2c1 | 230 | 49 | 34 |  |  | 
O=c1ccc(S(=O)(=O)c2oc3ccccc3c2-c2ccccc2)n[nH]1 | 23 |  |  |  |  | 
O=c1ccc(S(=O)(=O)c2cc3ccccc3o2)n[nH]1 |  |  |  |  | 34 | 
O=S(=O)(c1ccc(O)nn1)c1ccc(F)cc1Cl |  | 106 | 97 | 95 | 87 | 
O=S(=O)(Cc1cccc(C(F)(F)F)c1)c1ccc(O)nn1 | 72 | 88 | 70 |  |  | inhibition in vivo at 20 mg/kg (Rattus norvegicus [9]): 42%; inhibition in vivo at 20 mg/kg (Rattus norvegicus [10]): 65%
O=c1ccc(S(=O)(=O)c2ccc(C(F)(F)F)cc2)n[nH]1 | 360 | 67 | 24 | 44 | 10 | 
O=S(=O)(c1ccc(O)nn1)c1ccccc1Cl |  | 101 | 81 | 96 | 68 | 
O=S(=O)(c1ccc(O)nn1)c1ccc(Br)cc1F |  |  |  | 81 | 67 | 
O=S(=O)(c1ccc(Cl)c(Cl)c1)c1ccc(O)nn1 |  | 98 | 85 | 84 | 60 | 
O=c1ccc(S(=O)(=O)c2cc3cc(Cl)cc(Cl)c3[nH]2)n[nH]1 | 200 |  |  |  |  | 
Cc1c(S(=O)(=O)c2ccc(O)nn2)oc2ccccc12 | 140 |  | 56 |  | 43 | 
CC(C)c1c(S(=O)(=O)c2ccc(O)nn2)oc2ccc(Cl)cc12 | 92 |  |  |  |  | Inhibition (Rattus norvegicus [13]): 14%; Inhibition (Rattus norvegicus [14]): 48%
O=c1ccc(S(=O)(=O)Cc2ccc(Br)cc2F)n[nH]1 | 667 |  |  |  |  | 
O=S(=O)(c1ccc(O)nn1)c1ccccc1Br |  |  |  |  |  | inhibition in vivo at 50 mg/kg (Rattus norvegicus [8]): 55%
O=c1ccc(S(=O)(=O)c2cc3ccccc3s2)n[nH]1 | 180 | 46 | 22 |  |  | 
O=c1ccc(S(=O)(=O)c2cc3ccc(F)cc3[nH]2)n[nH]1 | 1400 |  |  |  |  | 
Cc1c(S(=O)(=O)c2ccc(O)nn2)sc2ccc(Cl)cc12 | 55 |  |  | 83 | 51 | inhibition in vivo at 3 mg/kg (Rattus norvegicus [17]): 49%; inhibition in vivo at 3 mg/kg (Rattus norvegicus [18]): 29%
O=c1ccc(S(=O)(=O)Cc2cccc(C(F)(F)F)c2F)n[nH]1 | 44 | 61 | 56 |  |  | 
Cc1c(S(=O)(=O)c2ccc(O)nn2)oc2cc(Cl)ccc12 | 190 |  |  | 40 | 28 | 

The remaining compounds from weak to strong by IC50 [1], led by results:

IC50 [1] [nM] | Structure (SMILES) | inhibition in vivo at 20 mg/kg (Rattus norvegicus [2]) [%] | inhibition in vivo at 20 mg/kg (Rattus norvegicus [3]) [%] | inhibition in vivo at 10 mg/kg (Rattus norvegicus [4]) [%] | inhibition in vivo at 10 mg/kg (Rattus norvegicus [5]) [%] | further results
3800 | O=c1ccc(S(=O)(=O)c2cc3cc4c(cc3[nH]2)OCO4)n[nH]1 |  |  |  |  | 
1100 | O=c1ccc(S(=O)(=O)c2cc3cc(Cl)ccc3[nH]2)n[nH]1 |  |  |  |  | 
870 | O=c1ccc(S(=O)(=O)c2ccc(F)cc2F)n[nH]1 |  |  |  |  | 
645 | O=c1ccc(S(=O)(=O)c2cc3ccc(Cl)cc3[nH]2)n[nH]1 |  |  |  |  | 
590 | O=c1ccc(S(=O)(=O)c2cc3ccccc3[nH]2)n[nH]1 | 100 | 82 | 75 | 58 | inhibition in vivo at 20 mg/kg (Rattus norvegicus [9]): 50%; inhibition in vivo at 20 mg/kg (Rattus norvegicus [10]): 67%
540 | O=c1ccc(S(=O)(=O)c2ccccc2F)n[nH]1 | 91 | 56 | 79 | 34 | 
474 | O=c1ccc(S(=O)(=O)c2ccc(F)cc2)n[nH]1 |  |  |  |  | inhibition in vivo at 50 mg/kg (Rattus norvegicus [8]): 81%
450 | O=c1ccc(S(=O)(=O)c2cc3cccc(Cl)c3[nH]2)n[nH]1 | 40 | 44 |  |  | 
422 | O=S(=O)(Cc1ccccc1F)c1ccc(O)nn1 |  |  |  |  | 
360 | O=S(=O)(c1ccc2ccccc2c1)c1ccc(O)nn1 |  |  |  |  | Inhibition (Rattus norvegicus [13]): 51%; inhibition in vivo at 20 mg/kg (Rattus norvegicus [10]): 74%
350 | O=c1ccc(S(=O)(=O)c2ccc(Br)cc2)n[nH]1 |  |  |  |  | inhibition in vivo at 50 mg/kg (Rattus norvegicus [8]): 26%
240 | O=S(=O)(c1cccc(Cl)c1)c1ccc(O)nn1 |  |  |  |  | 
175 | O=c1ccc(S(=O)(=O)c2cccc(C(F)(F)F)c2)n[nH]1 | 45 | 17 |  |  | 
160 | Cc1ccc2sc(S(=O)(=O)c3ccc(O)nn3)cc2c1 |  | 7 |  |  | 
150 | O=c1ccc(S(=O)(=O)c2cccc3ccccc23)n[nH]1 | 95 | 55 | 88 | 49 | inhibition in vivo at 10 mg/kg (Rattus norvegicus [11]): 31%; inhibition in vivo at 20 mg/kg (Rattus norvegicus [9]): 43%; inhibition in vivo at 20 mg/kg (Rattus norvegicus [10]): 70%; inhibition in vivo at 10 mg/kg (Rattus norvegicus [12]): 60%
118 | O=S(=O)(Cc1ccccc1Cl)c1ccc(O)nn1 |  |  |  |  | 
87 | O=c1ccc(S(=O)(=O)c2cc3cc(Cl)cc(Cl)c3o2)n[nH]1 |  |  | 32 | 39 | 
55 | O=c1ccc(S(=O)(=O)c2cccc(Cl)c2Cl)n[nH]1 | 98 |  | 77 |  | inhibition in vivo at 5 mg/kg (Rattus norvegicus [15]): 55%; inhibition in vivo at 5 mg/kg (Rattus norvegicus [16]): 81%; inhibition in vivo at 20 mg/kg (Rattus norvegicus [10]): 89%
54 | O=S(=O)(Cc1cccc(Cl)c1F)c1ccc(O)nn1 | 74 | 64 |  |  | 
52 | O=c1ccc(S(=O)(=O)Cc2c(Cl)cccc2Cl)n[nH]1 |  |  | 42 | 24 | 
49 | O=S(=O)(c1ccc(O)nn1)c1oc2ccccc2c1-c1ccc(F)cc1 |  |  | 66 | 50 | 
35 | O=c1ccc(S(=O)(=O)Cc2cccc(Cl)c2Cl)n[nH]1 | 65 | 48 |  |  | 
26 | O=c1ccc(S(=O)(=O)Cc2c(F)cccc2Cl)n[nH]1 | 42 | 45 |  |  | 
13 | Cc1ccc2oc(S(=O)(=O)c3ccc(O)nn3)c(C)c2c1 |  |  | 21 | 18 | 
6 | CCc1c(S(=O)(=O)c2ccc(O)nn2)oc2ccc(Cl)cc12 |  |  |  |  | inhibition in vivo at 10 mg/kg (Rattus norvegicus [11]): 24%; inhibition in vivo at 10 mg/kg (Rattus norvegicus [12]): 48%
